# Key:
# NET = format: binding, rat; settings: selectivity ratio for SERT over NET
# DAT = DAT (Rattus norvegicus, UniProt P23977); format: binding
# Chain of DAT (P23977 whole entry): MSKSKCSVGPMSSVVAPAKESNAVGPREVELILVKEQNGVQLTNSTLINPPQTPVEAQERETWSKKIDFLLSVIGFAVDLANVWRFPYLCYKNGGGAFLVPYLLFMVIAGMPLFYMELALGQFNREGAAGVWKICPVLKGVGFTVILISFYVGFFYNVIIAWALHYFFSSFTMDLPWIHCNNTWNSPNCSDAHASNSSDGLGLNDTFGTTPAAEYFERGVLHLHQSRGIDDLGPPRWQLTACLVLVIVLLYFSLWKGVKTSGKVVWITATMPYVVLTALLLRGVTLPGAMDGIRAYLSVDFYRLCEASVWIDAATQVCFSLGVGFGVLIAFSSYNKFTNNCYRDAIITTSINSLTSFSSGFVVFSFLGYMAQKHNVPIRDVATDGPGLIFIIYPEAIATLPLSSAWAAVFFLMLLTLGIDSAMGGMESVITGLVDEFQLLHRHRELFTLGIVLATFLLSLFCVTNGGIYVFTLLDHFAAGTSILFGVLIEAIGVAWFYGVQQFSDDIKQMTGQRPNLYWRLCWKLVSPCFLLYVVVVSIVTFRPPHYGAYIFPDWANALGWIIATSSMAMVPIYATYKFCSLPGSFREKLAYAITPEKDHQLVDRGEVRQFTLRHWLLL
Ki(NET)/Ki (SERT) (NET),Compound,Ki (DAT) [nM],Ki(DAT)/Ki (SERT) (DAT; selectivity ratio for SERT over DAT)
284,"COc1cccc(-c2ccc3c(c2)COC3(CCCN(C)C)c2ccc(F)cc2)c1 (stereo not shown) [Compound 11, 3-(1-(4-Fluorophenyl)-5-(3’-methoxyphenyl)-1,3-dihydroisobenzofuran-1-yl)-N,N-dimethylpropan-1-amine]",–,–
122,"CN(C)CCCC1(c2ccc(F)cc2)OCc2cc(CCc3ccccc3)ccc21 (stereo not shown) [Compound 14, 3-(1-(4-Fluorophenyl)-5-phenethyl-1,3-dihydroisobenzofuran-1-yl)-N,N-dimethylpropan-1-amine]",–,–
193,"CN(C)CCCC1(c2ccc(F)cc2)OCc2cc(-c3cccc(F)c3)ccc21 (stereo not shown) [Compound 15, 3-(5-(3-Fluorophenyl)-1-(4-fluorophenyl)-1,3-dihydroisobenzofuran-1-yl)-N,N-dimethylpropan-1-amine]",–,–

Compound,Ki(NET)/Ki (SERT) (NET),Ki (DAT) [nM],Ki(DAT)/Ki (SERT) (DAT; selectivity ratio for SERT over DAT)
"CN(C)CCCC1(c2ccc(F)cc2)OCc2cc(Br)ccc21 (stereo not shown) [Compound 5, 3-(5-bromo-1-(4-fluorophenyl)-1,3-dihydroisobenzofuran-1-yl)-N,N-dimethylpropan-1-amine]",">10,000",1650 ± 112,1590
"CN(C)CCCC1(c2ccc(F)cc2)OCc2cc(-c3cc(F)cc(F)c3)ccc21.O=C(O)C(=O)O (stereo not shown) [Compound 13, 3-(5-(3,5-Difluorophenyl)-1-(4-fluorophenyl)-1,3-dihydroisobenzofuran-1-yl)-N,N-dimethylpropan-1-amine oxalate]",19,–,–
